# Laboratory results published in article PMC3242765, “Inhibitors of Alphavirus Entry and Replication Identified with a Stable Chikungunya Replicon Cell Line and Virus-Based Assays” (PLoS ONE, 2011).
# Values joined by “and” are separate entries in the source; they are usually repeats but may differ in a detail not shown here. Equal entries are not always repeated. Structures can show the parent of a compound that is named as a salt.
# What was measured:
# CHIKV replicon = assay: microbe, parasite or virus in culture; assay type: cell-based, Chikungunya virus (CHIKV)
SMILES,CHIKV replicon % left (CHIKV replicon),"SFV replication % left (surviving fraction, remaining percentage of SFV replication) (SFV-Rluc)"
O=c1c(-c2ccc(O)cc2)coc2cc(O)ccc12 [Daidzein],104.4%,76.6%
COc1ccc2ccc(=O)oc2c1O [Daphnetin-7-methylether],89.9%,105.6%
O=c1ccc2ccc(O)c(O)c2o1 [Daphnetin],103.7% and 92.1%,90.6% and 81.7%
C[C@H](CCC(=O)O)[C@H]1CC[C@H]2[C@@H]3CC[C@@H]4C[C@H](O)CC[C@]4(C)[C@H]3C[C@H](O)[C@]12C [Deoxycholic acid],100.8%,86.5%
Cc1cc(N)c2ccccc2[n+]1CCCCCCCCCC[n+]1c(C)cc(N)c2ccccc21 [Dequalinium chloride],39.4%,62.5%
NCCN1C(=O)CN=C(c2ccccc2F)c2cc(Cl)ccc21 [Desalkylflurazepam],74.3%,68.5%
CN(C)CC[C@@H](c1ccc(Br)cc1)c1ccccn1 [Dexbrompheniramine maleate],100.4%,69.6%
CN(C)CC[C@@H](c1ccc(Cl)cc1)c1ccccn1 [Dexchlorpheniramine maleate],51.7%,68.1%
CN1C(=O)CN=C(c2ccccc2)c2cc(Cl)ccc21 [Diazepam],84.0%,73.6%
CCCCOc1cc(C(=O)NCCN(CC)CC)c2ccccc2n1 [Dibucaine hydrochloride],100.5%,77.8%
CC(C)NCC(O)c1ccc(Cl)c(Cl)c1.Cl (centres unmarked) [Dichloroisoproterenol hydrochloride],69.2%,49.6%
O=c1oc2ccccc2c(O)c1Cc1c(O)c2ccccc2oc1=O [Dicumarol],43.0%,65.6%
CCN(CC)C(C)C(=O)c1ccccc1 (centres unmarked) [Diethylpropion hydrochloride],29.6%,47.1%
C[C@H]1O[C@@H](O[C@H]2[C@@H](O)C[C@H](O[C@H]3[C@@H](O)C[C@H](O[C@H]4CC[C@@]5(C)[C@H](CC[C@@H]6[C@@H]5C[C@@H](O)[C@]5(C)[C@@H](C7=CC(=O)OC7)CC[C@]65O)C4)O[C@@H]3C)O[C@@H]2C)C[C@H](O)[C@@H]1O [Digoxin],94.3%,141.9%
CN(C)CCOC(c1ccccc1)c1ccccc1 [Diphenhydramine hydrochloride],194.3%,41.0%
O=C1NC(=O)C(c2ccccc2)(c2ccccc2)N1 [Diphenylhydantoin [phenytoin]],78.1%,66.3%
CN(C)CCC=C1c2ccccc2COc2ccccc21 [Doxepin hydrochloride],87.2%,21.6%
CCOc1ccc(NC(N)=O)cc1 [Dulcin [p-phenetylurea]],70.2%,103.3%
O=c1oc2c(O)c(O)cc3c(=O)oc4c(O)c(O)cc1c4c23 [Ellagic acid],71.1%,64.9%
CC[C@H]1CN2CCc3cc(OC)c(OC)cc3[C@@H]2C[C@@H]1C[C@H]1NCCc2cc(OC)c(OC)cc21 [Emetine dihydrochloride],80.9%,63.1%
O=c1ccc2cc(O)c(O)cc2o1 [Esculetin],89.2%,103.6%
O.O.O.O=c1ccc2cc(O[C@@H]3O[C@H](CO)[C@@H](O)[C@H](O)[C@H]3O)c(O)cc2o1.O=c1ccc2cc(O[C@@H]3O[C@H](CO)[C@@H](O)[C@H](O)[C@H]3O)c(O)cc2o1 [Esculin sesquihydrate],102.6%,95.0%
CCN(CC)C(=O)c1ccc(O)c(OC)c1 [Ethamivan],43.1%,85.5%

SMILES,CHIKV replicon % left (CHIKV replicon),"SFV replication % left (surviving fraction, remaining percentage of SFV replication) (SFV-Rluc)"
CCN(CC)C(C)CN1c2ccccc2Sc2ccccc21 (centres unmarked) [Ethopropazine hydrochloride],59.8%,20.1%
CCOc1ccc2c(c1)C(C)=CC(C)(C)N2 [Ethoxyquin],83.6%,96.4%
CCOC(=O)c1ccc(O)cc1 [Ethyl 4-hydroxybenzoate],94.4%,127.8%
CCC(N)C(O)c1ccc(O)c(O)c1 (centres unmarked) [Ethylnorepinephrine],104.3%,126.8%
CCNCC(O)c1cccc(O)c1 (centres unmarked) [Etilefrin],87.1%,116.8%
CC(C(=O)[O-])c1cccc(Oc2ccccc2)c1.CC(C(=O)[O-])c1cccc(Oc2ccccc2)c1.[Ca+2] (centres unmarked) [Fenoprofen calcium salt],78.3%,87.6%
CC(Cc1ccc(O)cc1)NCC(O)c1cc(O)cc(O)c1 (centres unmarked) [Fenoterol hydrobromide],88.4%,106.6%
COc1cc(/C=C/C(=O)O)ccc1O [Ferulic acid],55.8%,63.4%
O=c1cc(-c2ccccc2)oc2ccccc12 [Flavone],39.4%,52.2%
O=C(O)/C=C\C(=O)O.O=C(O)/C=C\C(=O)O.OCCN1CCN(CCCN2c3ccccc3Sc3ccc(C(F)(F)F)cc32)CC1 [Fluphenatzinemaleate],104.3%,98.9%
Nc1nc(=O)c2nc(CNc3ccc(C(=O)N[C@@H](CCC(=O)O)C(=O)O)cc3)cnc2[nH]1 [Folic acid],78.1%,100.0%
COc1cc2ccc(=O)oc2c(O)c1O [Fraxetin],95.4%,103.6%
COc1cc2ccc(=O)oc2c(O)c1OC [Fraxidin],104.3%,77.8%
O=C(O)c1cc(O)c(O)c(O)c1 [Gallic acid],88.9%,148.8%
O=c1c(-c2ccc(O)cc2)coc2cc(O)cc(O)c12 [Genistein],62.1%,45.6%
C[C@]12CC[C@H](O)C[C@H]1CC[C@@H]1[C@@H]2CC[C@]2(C)[C@@H](C3=CC(=O)OC3)[C@@H](O)C[C@]12O [Gitoxigenin],81.4%,102.7%
O=c1c(O)c(-c2ccc(O)c(O)c2)oc2c(O[C@@H]3O[C@H](CO)[C@@H](O)[C@H](O)[C@H]3O)c(O)cc(O)c12 [Gossypin],104.3%,105.8%
COc1ccccc1OCC(O)CO (centres unmarked) [Guaifenesin],82.7%,124.5%
O=C(OC[C@H]1OC(O)[C@@](O)(COC(=O)c2cc(O)c(O)c(O)c2)[C@@H]1O)c1cc(O)c(O)c(O)c1 (some centres unmarked) [Hamamelitannin],40.1%,14.7%
COc1ccc2ccc(=O)oc2c1 [Herniarin],102.2%,53.2%
COc1ccc([C@@H]2CC(=O)c3c(O)cc(O[C@@H]4O[C@H](CO[C@@H]5O[C@@H](C)[C@H](O)[C@@H](O)[C@H]5O)[C@@H](O)[C@H](O)[C@H]4O)cc3O2)cc1O [Hesperidin],102.2%,77.7%
CN1C(=O)NC(=O)C(C)(C2=CCCCC2)C1=O (centres unmarked) [Hexobarbital],98.2%,121.3%
Oc1ccc(C(O)CNCCCCCCNCC(O)c2ccc(O)c(O)c2)cc1O (centres unmarked) [Hexoprenaline],79.1%,124.9%
